Laboratory results published in US5523457A, “Retinoid-like compounds” (Bristol-Myers Squibb Company, priority 1995, dated 1996).
Read-outs that look alike come from different tables or passages of the source.

Tests used:
lung line L2987 = assay: Cytotoxicity assay (alamarBlue cell viability), lung line L2987, experiment 2; assay type: cell-based; conditions: Homo sapiens
Description: FIG. 1 is the cytotoxicity dose response curves for lung line L2987. […] Briefly, the assayed involved plating 1000 cells per well in a volume of 120 μL in a 96 well flat-bottom dish (Corning) on day -1. Twenty-four hours later the appropriate dilution of a compound of formula I was added in a volume of 30 μL complete medium (final volume 150 μL). The plates were sealed with a plate sealer (Dynatech Labs) to prevent evaporation. On day 5 the mylar film was removed and 15 μL of sterile alamarBlue was added to each well and the cells were incubated 37° C. 5% CO2 for two hours. Using a Vmax plate reader the optical density for each well was determined having the […]. The 100% signal was determined for cells grown in complete medium containing only 0.5% DMSO. All wells were set-up in triplicate and the mean values were plotted in FIG. 1.

[1] = system: second primary tumors in squamous-cell carcinoma of the head and neck; conditions: Hong et al., N. Engl. J. Med., 1990; cited from earlier work
[2] = L2987 lung line, 1000 cells per well, compound added 24 h after plating, read on day 5 with alamarBlue, triplicate wells, read-out: IC50 values for L2987 experiment 2

| SMILES | IC50 (lung line L2987; [2]) | also measured |
| --- | --- | --- |
| CC1=C(/C=C/C(C)=C/C=C/C(C)=C/C(=O)O)C(C)(C)CCC1 [All trans retinoic acid, reference compound] |  | IC50 (lung line L2987; L2987, read-out: IC50 values for L2987 experiment 2): 68 µM |
| O=C(O)c1ccc(NC(=O)c2ccc3cccc(-c4ccccc4)c3c2)cc1 [I^2' a, 4-[[(8-phenyl-2-naphthalenyl)carbonyl]amino]benzoic acid] | 72 µM |  |
| Cc1cc(C)cc(-c2cccc3ccc(C(=O)Nc4ccc(C(=O)O)cc4)cc23)c1 [I^2' b, 4-[[[8(3,5-Dimethylphenyl)-2-naphthalenyl]carbonyl]amino]benzoic acid] | 39 µM |  |
| Cc1ccc(-c2cccc3ccc(C(=O)Nc4ccc(C(=O)O)cc4)cc23)cc1C [I^2' f, 4-[[[8-(3,4-Dimethylphenyl)-2-naphthalenyl]carbonyl]amino]benzoic acid] | 49 µM |  |
| Cc1ccc(-c2cccc3ccc(C(=O)Nc4ccc(C(=O)O)cc4)cc23)c(C)c1 [I^2' g, 4-[[[8-(2,4 -Dimethylphenyl)-2-naphthalenyl]carbonyl]amino]benzoic acid] | 54 µM |  |
| CC1=C(/C=C/C(C)=C/C=C/C(C)=C\C(=O)O)C(C)(C)CCC1 [Isotretinoin] |  | prevention of second primary tumors in squamous-cell carcinoma of the head and neck [1]: shown to be useful in prevention of second primary tumors |
